Legend:
[1] = system: EGFR (Human), P00533 [Assessment of Proliferation in EGFR DelE746_A750 Mutant Expressing HCC827 Cells]
[2] = system: EGFR (Human), P00533 [T790M/L858R]; settings: nci-h1975
Sequence of EGFR (Human), P00533 [T790M/L858R] (P00533 whole entry T790M/L858R, looked up): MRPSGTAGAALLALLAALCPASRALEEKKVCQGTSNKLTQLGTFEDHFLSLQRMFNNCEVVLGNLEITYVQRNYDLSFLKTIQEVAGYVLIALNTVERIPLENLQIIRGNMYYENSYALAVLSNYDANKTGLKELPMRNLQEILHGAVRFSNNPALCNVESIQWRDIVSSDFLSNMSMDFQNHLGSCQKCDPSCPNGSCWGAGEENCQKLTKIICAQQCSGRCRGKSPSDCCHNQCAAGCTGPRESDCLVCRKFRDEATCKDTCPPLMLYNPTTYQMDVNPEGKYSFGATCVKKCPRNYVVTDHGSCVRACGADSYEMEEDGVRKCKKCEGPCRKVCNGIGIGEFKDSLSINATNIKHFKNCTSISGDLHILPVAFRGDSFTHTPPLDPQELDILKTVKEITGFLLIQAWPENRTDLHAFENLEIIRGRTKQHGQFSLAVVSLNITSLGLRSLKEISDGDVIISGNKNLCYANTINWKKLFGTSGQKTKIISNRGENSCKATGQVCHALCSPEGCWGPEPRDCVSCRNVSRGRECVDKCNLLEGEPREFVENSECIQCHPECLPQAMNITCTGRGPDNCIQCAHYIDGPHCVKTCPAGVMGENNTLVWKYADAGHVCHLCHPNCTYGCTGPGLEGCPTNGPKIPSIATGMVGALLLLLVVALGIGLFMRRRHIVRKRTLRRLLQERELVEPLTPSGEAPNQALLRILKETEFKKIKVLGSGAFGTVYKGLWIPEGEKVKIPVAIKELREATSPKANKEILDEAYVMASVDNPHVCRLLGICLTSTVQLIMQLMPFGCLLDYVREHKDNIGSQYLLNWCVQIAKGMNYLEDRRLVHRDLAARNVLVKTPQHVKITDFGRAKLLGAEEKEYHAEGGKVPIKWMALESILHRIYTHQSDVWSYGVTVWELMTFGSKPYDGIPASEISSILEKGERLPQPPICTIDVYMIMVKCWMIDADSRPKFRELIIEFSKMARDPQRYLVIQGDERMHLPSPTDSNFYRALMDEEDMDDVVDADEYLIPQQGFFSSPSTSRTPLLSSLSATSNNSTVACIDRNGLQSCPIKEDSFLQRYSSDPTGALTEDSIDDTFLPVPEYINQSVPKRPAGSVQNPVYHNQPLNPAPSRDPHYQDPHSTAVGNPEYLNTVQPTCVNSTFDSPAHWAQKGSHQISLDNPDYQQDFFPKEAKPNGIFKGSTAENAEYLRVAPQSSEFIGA

Sequence of EGFR (Human), P00533 [Assessment of Proliferation in EGFR DelE746_A750 Mutant Expressing HCC827 Cells] (P00533 whole entry, looked up, stated change not applied): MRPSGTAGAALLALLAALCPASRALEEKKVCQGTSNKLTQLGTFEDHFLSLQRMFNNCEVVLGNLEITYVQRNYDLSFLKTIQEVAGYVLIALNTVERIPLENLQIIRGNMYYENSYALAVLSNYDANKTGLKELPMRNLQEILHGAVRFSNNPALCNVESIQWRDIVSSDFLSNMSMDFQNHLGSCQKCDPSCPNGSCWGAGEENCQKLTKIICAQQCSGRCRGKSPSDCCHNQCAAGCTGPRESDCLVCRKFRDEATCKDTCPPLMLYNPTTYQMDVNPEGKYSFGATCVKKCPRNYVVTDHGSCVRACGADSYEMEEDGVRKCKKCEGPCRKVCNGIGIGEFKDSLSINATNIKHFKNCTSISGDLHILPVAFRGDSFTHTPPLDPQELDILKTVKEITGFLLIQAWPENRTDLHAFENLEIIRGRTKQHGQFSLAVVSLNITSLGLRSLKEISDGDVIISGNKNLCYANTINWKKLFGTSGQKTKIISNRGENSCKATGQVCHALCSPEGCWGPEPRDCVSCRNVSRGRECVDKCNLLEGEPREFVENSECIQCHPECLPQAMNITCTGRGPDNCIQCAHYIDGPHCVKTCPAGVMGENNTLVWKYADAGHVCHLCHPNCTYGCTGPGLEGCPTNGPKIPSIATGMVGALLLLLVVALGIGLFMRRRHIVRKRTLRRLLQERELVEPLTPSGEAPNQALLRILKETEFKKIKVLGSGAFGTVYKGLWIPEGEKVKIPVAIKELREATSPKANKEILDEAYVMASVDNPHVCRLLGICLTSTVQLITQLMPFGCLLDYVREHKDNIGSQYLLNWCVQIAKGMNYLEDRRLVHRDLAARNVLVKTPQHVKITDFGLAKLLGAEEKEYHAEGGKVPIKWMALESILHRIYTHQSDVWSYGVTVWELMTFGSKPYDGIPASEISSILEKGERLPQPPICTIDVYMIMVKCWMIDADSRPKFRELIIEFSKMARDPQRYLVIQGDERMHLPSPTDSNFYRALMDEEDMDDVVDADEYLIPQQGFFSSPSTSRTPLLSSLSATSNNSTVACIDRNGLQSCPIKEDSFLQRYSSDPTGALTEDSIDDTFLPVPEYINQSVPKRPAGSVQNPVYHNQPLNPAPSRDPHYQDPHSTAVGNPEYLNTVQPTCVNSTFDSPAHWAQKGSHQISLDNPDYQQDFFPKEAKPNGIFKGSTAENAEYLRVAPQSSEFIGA

Row | GI50 [1] | SMILES | GI50 [2]
1 | ≤ 50 nM | C=CC(=O)Nc1cccc(Oc2nc(Nc3ccc(OCCN(CC)CC)c(F)c3)nc3ccsc23)c1 | ≤ 50 nM
2 | ≤ 50 nM | C=CC(=O)Nc1cccc(Oc2nc(Nc3ccc(C4CCCN(C)C4)cc3)nc3ccsc23)c1 (stereo unspecified) | ≤ 50 nM
3 | ≤ 50 nM | C=CC(=O)Nc1cccc(Oc2nc(Nc3ccc(N4CC(C)N(C)C(C)C4)cc3)nc3ccsc23)c1 (stereo unspecified) | ≤ 50 nM
4 | ≤ 50 nM | C=CC(=O)Nc1cccc(Oc2nc(Nc3ccc(C(=O)N4CCN(CC)CC4)cc3)nc3ccsc23)c1 | ≤ 50 nM
5 | ≤ 50 nM | C=CC(=O)Nc1cccc(Oc2nc(Nc3ccc(CN4CCCCC4)cc3)nc3ccsc23)c1 | ≤ 50 nM
6 | ≤ 50 nM | C=CC(=O)Nc1cccc(Oc2nc(Nc3ccc(CN4CCCC4)cc3)nc3ccsc23)c1 | ≤ 50 nM
7 | ≤ 50 nM | C=CC(=O)Nc1cccc(Oc2nc(Nc3ccc(CCN4CCN(S(C)(=O)=O)CC4)cc3)nc3ccsc23)c1 | ≤ 50 nM
8 | ≤ 50 nM | C=CC(=O)Nc1cccc(Oc2nc(Nc3ccc(N4CCC(CN5CCCCC5)CC4)cc3)nc3ccsc23)c1 | ≤ 50 nM
9 | ≤ 50 nM | C=CC(=O)Nc1cccc(Oc2nc(Nc3ccc(NCCN(C)C)cc3)nc3ccsc23)c1 | 100 to 1000 nM
10 | ≤ 50 nM | C=CC(=O)Nc1cccc(Oc2nc(Nc3ccc(N4CCN(C(=O)N5CCOCC5)CC4)cc3)nc3ccsc23)c1 | 50 to 100 nM
11 | ≤ 50 nM | C=CC(=O)Nc1cccc(Sc2nc(Nc3ccc(N4CCOCC4)c(F)c3)nc3ccsc23)c1 | ≤ 50 nM
12 | ≤ 50 nM | C=CC(=O)Nc1cccc(Oc2nc(Nc3ccc(CN4CCC(N(C)C)CC4)cc3)nc3ccsc23)c1 | ≤ 50 nM
13 | 50 to 100 nM | C=CC(=O)Nc1cccc(Oc2nc(Nc3ccc4c(ccn4C)c3)nc3ccsc23)c1 | ≤ 50 nM
14 | 100 to 1000 nM | C=CC(=O)Nc1cccc(Oc2nc(Nc3ccc(CC(=O)NC4CCN(C)CC4)cc3)nc3ccsc23)c1 | ≤ 50 nM
15 | 50 to 100 nM | C=CC(=O)Nc1cccc(Nc2nc(Nc3ccc(CCN4CCN(C)CC4)cc3)nc3ccsc23)c1 | ≤ 50 nM
16 | ≤ 50 nM | C=CC(=O)Nc1cccc(Oc2nc(Nc3ccc(N4CCN(CCF)CC4)cc3)nc3ccsc23)c1 | 50 to 100 nM
17 | ≤ 50 nM | C=CC(=O)Nc1cccc(Nc2nc(Nc3ccc(C4CCN(C)CC4)c(F)c3)nc3ccsc23)c1 | ≤ 50 nM
18 | ≤ 50 nM | C=CC(=O)Nc1cccc(Oc2nc(Nc3ccc(C4CCN(C(C)C)CC4)cc3)nc3ccsc23)c1 | ≤ 50 nM
19 | ≤ 50 nM | C=CC(=O)Nc1cccc(Oc2nc(Nc3ccc(N4CCOCC4)c(F)c3)nc3ccsc23)c1 | ≤ 50 nM
20 | ≤ 50 nM | C=CC(=O)Nc1cccc(Oc2nc(Nc3ccc(N4CCS(=O)(=O)CC4)cc3)nc3ccsc23)c1 | ≤ 50 nM
21 | ≤ 50 nM | C=CC(=O)Nc1cccc(Oc2nc(Nc3ccc(N4CCC(C(=O)N(C)C)CC4)cc3)nc3ccsc23)c1 | ≤ 50 nM
22 | 50 to 100 nM | C=CC(=O)Nc1cccc(Oc2nc(Nc3ccc(CN4CCC(N(C)C)CC4)cc3)nc3ccoc23)c1 | 50 to 100 nM
23 | ≤ 50 nM | C=CC(=O)Nc1cccc(Oc2nc(Nc3ccc(N4CCC(N5CCCC5)CC4)c(Cl)c3)nc3ccsc23)c1 | ≤ 50 nM
24 | ≤ 50 nM | C=CC(=O)Nc1cccc(Oc2nc(Nc3ccc(OCCN4CCOCC4)cc3)nc3ccsc23)c1 | ≤ 50 nM
25 | ≤ 50 nM | C=CC(=O)Nc1cccc(Oc2nc(Nc3ccc(N4CCN(C(=O)CN(C)C)CC4)c(F)c3)nc3ccsc23)c1 | ≤ 50 nM
26 | ≤ 50 nM | C=CC(=O)Nc1cccc(Oc2nc(Nc3ccc(OCCN4CCN(C)CC4)c(F)c3)nc3ccsc23)c1 | ≤ 50 nM
27 | 50 to 100 nM | C=CC(=O)Nc1cccc(Oc2nc(Nc3ccc(N4CC(C)OC(C)C4)c(F)c3)nc3ccsc23)c1 (stereo unspecified) | 50 to 100 nM

Row | GI50 [1] | SMILES | GI50 [2]
28 | ≤ 50 nM | C=CC(=O)Nc1cccc(Oc2nc(Nc3ccc(N4CCN(C)CC4)cn3)nc3ccsc23)c1 | ≤ 50 nM
29 | 50 to 100 nM | C=CC(=O)Nc1cccc(Oc2nc(Nc3ccc(C4CCN(C)CC4)cc3OC)nc3ccsc23)c1 | ≤ 50 nM
30 | ≤ 50 nM | C=CC(=O)Nc1cccc(Oc2nc(Nc3ccc(N4CCC(N5CCCC5)CC4)c(F)c3)nc3ccsc23)c1 | ≤ 50 nM
31 | 50 to 100 nM | C=CC(=O)Nc1cccc(Oc2nc(Nc3ccc(N4CCN(C)CC4)cc3OC)nc3ccsc23)c1 | 50 to 100 nM
32 | ≤ 50 nM | C=CC(=O)Nc1cccc(Oc2nc(Nc3ccc(C4CCN(C)CC4)cc3)nc3ccsc23)c1 | ≤ 50 nM
33 | ≤ 50 nM | C=CC(=O)Nc1cccc(Oc2nc(Nc3ccc(CN4CCN(C)CC4)nc3)nc3ccsc23)c1 | 50 to 100 nM
34 | ≤ 50 nM | C=CC(=O)Nc1cccc(Oc2nc(Nc3ccc(S(=O)(=O)NCCN(C)C)cc3)nc3ccsc23)c1 | ≤ 50 nM
35 | ≤ 50 nM | C=CC(=O)Nc1cccc(Oc2nc(Nc3ccc(C(C)N4CCN(CC)CC4)cc3)nc3ccsc23)c1 (stereo unspecified) | ≤ 50 nM
36 | 50 to 100 nM | C=CC(=O)Nc1cccc(Oc2nc(Nc3ccc(C(=O)N(C)C)cc3)nc3ccsc23)c1 | 50 to 100 nM
37 | ≤ 50 nM | C=CC(=O)Nc1cccc(Oc2nc(Nc3ccc(N4CCC(N5CCCC5)CC4)cc3)nc3ccsc23)c1 | ≤ 50 nM
38 | ≤ 50 nM | C=CC(=O)Nc1cccc(Nc2nc(Nc3ccc(CN(C)C)cc3)nc3ccsc23)c1 | ≤ 50 nM
39 | ≤ 50 nM | C=CC(=O)Nc1cccc(Nc2nc(Nc3ccc(N4CCN(C(C)C)CC4)cc3)nc3ccsc23)c1 | ≤ 50 nM
40 | ≤ 50 nM | C=CC(=O)Nc1cccc(Oc2nc(Nc3ccc(NC4CCN(C)CC4)cc3)nc3ccsc23)c1 | 100 to 1000 nM
41 | ≤ 50 nM | C=CC(=O)Nc1cccc(Oc2nc(Nc3ccc(CN(C)C)cc3C)nc3ccsc23)c1 | ≤ 50 nM
42 | 50 to 100 nM | C=CC(=O)Nc1cccc(Oc2nc(Nc3ccc(C(=O)NC)cc3)nc3ccsc23)c1 | 50 to 100 nM
43 | ≤ 50 nM | C=CC(=O)Nc1cccc(Oc2nc(Nc3ccc(N4CCC(N5CCOCC5)CC4)cc3)nc3ccsc23)c1 | ≤ 50 nM
44 | ≤ 50 nM | C=CC(=O)Nc1cccc(Oc2nc(Nc3ccc(N4CCN(C)CC4)c(Cl)c3)nc3ccsc23)c1 | ≤ 50 nM
45 | 50 to 100 nM | C=CC(=O)Nc1cccc(Nc2nc(Nc3ccc(CN4CCCCC4)cc3OC)nc3ccsc23)c1 | 50 to 100 nM
46 | 50 to 100 nM | C=CC(=O)Nc1cccc(Oc2nc(Nc3ccc(S(=O)(=O)NC4CC4)cc3)nc3ccsc23)c1 | ≤ 50 nM
47 | ≤ 50 nM | C=CC(=O)Nc1cccc(Oc2nc(Nc3ccc(NC(=O)N4CCN(C)CC4)c(F)c3)nc3ccsc23)c1 | 50 to 100 nM
48 | 50 to 100 nM | C=CC(=O)Nc1cccc(Oc2nc(Nc3ccc(C(=O)OCCCN(C)C)cc3)nc3ccsc23)c1 | 50 to 100 nM
49 | 50 to 100 nM | C=CC(=O)Nc1cccc(Oc2nc(Nc3ccc(N4CCN(C)CC4)c(F)c3OC)nc3ccsc23)c1 | ≤ 50 nM
50 | ≤ 50 nM | C=CC(=O)Nc1cccc(Oc2nc(Nc3ccc(N4CCNCC4)cc3)nc3ccsc23)c1 | 100 to 1000 nM
51 | ≤ 50 nM | C=CC(=O)Nc1cccc(Oc2nc(Nc3ccc(N4CCN(CC(F)F)CC4)cc3)nc3ccsc23)c1 | ≤ 50 nM
52 | ≤ 50 nM | C=CC(=O)Nc1cccc(Oc2nc(Nc3ccc(C4CCN(C)CC4)c(F)c3)nc3ccoc23)c1 | ≤ 50 nM
53 | ≤ 50 nM | C=CC(=O)Nc1cccc(Oc2nc(Nc3ccc(C(=O)NCCN(C)C)cc3)nc3ccsc23)c1 | 100 to 1000 nM

— the Kinase Knowledgebase extract (Sharma et al. 2016)
